“Also recorded” adds a separate entry of the source. Blank lines part the entries; values can stand above or below the molecule they belong to.
Assays:
p75NTR [1] = target: T1, p75NTR (Homo sapiens, UniProt P08138); conditions: Massa et al., 2006; Longo and Massa, 2013; cited from earlier work
T1 sequence (P08138 29-427): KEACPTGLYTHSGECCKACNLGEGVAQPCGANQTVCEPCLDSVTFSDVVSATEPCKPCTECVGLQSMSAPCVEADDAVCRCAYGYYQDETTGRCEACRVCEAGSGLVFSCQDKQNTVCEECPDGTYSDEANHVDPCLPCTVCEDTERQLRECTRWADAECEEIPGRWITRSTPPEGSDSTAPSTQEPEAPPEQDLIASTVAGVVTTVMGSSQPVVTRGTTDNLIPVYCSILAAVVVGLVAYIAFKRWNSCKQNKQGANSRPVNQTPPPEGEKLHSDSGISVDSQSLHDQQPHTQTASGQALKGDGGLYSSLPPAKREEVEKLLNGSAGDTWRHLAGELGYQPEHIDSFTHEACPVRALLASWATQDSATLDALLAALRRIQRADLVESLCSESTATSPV

p75NTR [2] = target: T2, p75NTR (Rattus norvegicus, UniProt P07174); assay: IA20%-2BC binge drinking after systemic (intraperitoneal) administration of LM11A-31; type: in vivo; conditions: 30 min
T2 construct: from tissue; host or cells: dorsolateral striatum (DLS) of living rats
T2 sequence (P07174 30-425): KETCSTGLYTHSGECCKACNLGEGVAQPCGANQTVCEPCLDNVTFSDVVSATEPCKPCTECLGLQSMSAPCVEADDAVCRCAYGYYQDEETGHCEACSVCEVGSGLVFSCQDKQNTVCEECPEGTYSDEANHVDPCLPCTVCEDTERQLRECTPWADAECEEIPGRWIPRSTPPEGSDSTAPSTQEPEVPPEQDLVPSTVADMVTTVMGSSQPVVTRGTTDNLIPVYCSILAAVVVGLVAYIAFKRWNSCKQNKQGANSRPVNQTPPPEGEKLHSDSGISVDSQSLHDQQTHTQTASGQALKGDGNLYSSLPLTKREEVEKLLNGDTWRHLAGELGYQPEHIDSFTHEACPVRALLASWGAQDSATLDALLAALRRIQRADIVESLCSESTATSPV
Protocol: (§1) At 8 weeks of age, animals were given 24 hours of access to one bottle of 20% alcohol (v/v) and one bottle of tap water concurrently for a total of 21 sessions of 24 hours during a period of 7 weeks. Drinking sessions started at 12:00 P.M. on Monday, Wednesday, and Friday, with 24 or 48 hours (weekend) of alcohol deprivation between the drinking sessions. The water and alcohol bottles were weighed before the beginning of each drinking session, immediately after the first 30 minutes of access to alcohol and at the end of the session. Rats with escalation of alcohol consumption from session 1 to session 18, reaching a baseline of drinking that was higher than 3.5 g/kg/24 h, were selected for the studies.
Before the beginning of experiments, rats were habituated for 3 days to intraperitoneal administration by daily injections of saline (0.9% NaCl). LM11A-31 (50-150 mg/kg) or vehicle (0.9% saline) was administered intraperitoneally 2 hours before the beginning of the drinking session. Test days occurred once a week, with two alcohol-drinking sessions without treatment that were performed between injections to allow intake to return to baseline. For the highest dose of LM11A-31, vehicle and drug were tested in different animals. […]

p75NTR [3] = target: T2, p75NTR; assay: Intermittent access to 20% alcohol 2BC (IA20%-2BC) binge drinking after intra-DLS infusion of LM11A-31; type: in vivo; conditions: intra-DLS LM11A-31 30 μg/1 μl per side, vs vehicle
Protocol: as §1
(§2) Cannula implantation and microinfusions of BDNF and LM11A-31. Four holes were drilled for screws, and two holes were drilled for cannulae implantation (single cannula, C315GA; PlasticsOne). The coordinates for the DLS were +1.2 mm anterior to Bregma and 3.5 mm lateral to the medial suture. The cannulae were implanted into the lateral part of the dorsal striatum (−4.2 mm from the skull surface) and fixed with dental cement. After 1 week of recovery, the alcohol-drinking procedure resumed, and subjects were habituated to the microinjection procedure with two sham injections (injectors were lowered but no infusion took place). […]

[4] = test system: p75NTR-mediated neuronal death; conditions: Knowles et al., 2013, Tep et al.; cited from earlier work
Jun kinase = conditions: Shi et al., 2013; cited from earlier work
p75NTR [5] = target: T2, p75NTR; assay: Intermittent access to 1% sucrose 2BC after intra-DLS administration of LM11A-31; type: in vivo; conditions: intra-DLS LM11A-31 30 μg/μl; IA-2BC 1% sucrose, 30 min; vs vehicle
Protocol: (§3) The procedure was similar to the IA20%-2BC paradigm described above, except that a sucrose (1%) solution was substituted for alcohol. Rats were tested for sucrose intake in response to intra-DLS administration of LM11A-31 or vehicle 1 week after the conclusion of the alcohol-drinking study. Animals were trained to drink sucrose for 2 weeks before the test day. An independent cohort of rats underwent IA-2BC sucrose-drinking paradigm for 7 weeks before systemic administration of LM11A-31.
as §2, with “place). The experimental microinfusions began after each rat reacquired a stable level of drinking. BDNF, LM11A-31, or PBS was infused via a 25 μl Hamilton syringe (#1702), 3 h (BDNF) or 2 h (LM11A-31) before the beginning of the alcohol-drinking session.” for “place).”

p75NTR [6] = target: T2, p75NTR; assay: IA-2BC 1% sucrose drinking after systemic administration of LM11A-31; type: in vivo; conditions: LM11A-31 150 mg/kg systemic; IA 1% sucrose 2BC 7 weeks; 30 min access
Protocol: as §3
Before the beginning of experiments, rats were habituated for 3 days to intraperitoneal administration by daily injections of saline (0.9% NaCl). LM11A-31 (50-150 mg/kg) or vehicle (0.9% saline) was administered intraperitoneally 2 hours before the beginning of the drinking session. Test days occurred once a week, with two alcohol-drinking sessions without treatment that were performed between injections to allow intake to return to baseline. For the highest dose of LM11A-31, vehicle and drug were tested in different animals.
To test whether systemic administration of LM11A-31 attenuates binge drinking of sucrose, rats had IA to 1% sucrose in a 2BC paradigm for 7 weeks, and sucrose consumption was measured after 30 min access following LM11A-31 injection.

[7] = test system: rats with a history of excessive alcohol drinking; assay: Operant self-administration of alcohol after intra-DLS administration of BDNF; type: in vivo, rat; conditions: intra-DLS BDNF 0.75 μg/side 3 hours before operant session; 2.5, 10 and 20% alcohol; rats after 5 weeks IA20%-2BC; vs vehicle (PBS)
Protocol: After 5 weeks of the intermittent access (IA) to 20% alcohol 2BC paradigm (IA20%-2BC), the rats were trained to self-administer alcohol. […] Rats were trained under a fixed ratio 3 schedule; i.e., rats had to press three times to receive one reward. Sessions lasted for the duration of 1 h at the beginning of the training and 30 min after the first 2 weeks. The number of presses on the levers and the number of alcohol deliveries were recorded using MED-PC IV software (Med-Associates).
as §2, with “cement.” for “cement. After 1 week of recovery, the alcohol-drinking procedure resumed, and subjects were habituated to the microinjection procedure with two sham injections (injectors were lowered but no infusion took place).”
To test the possibility that BDNF signaling in the DLS is disrupted after chronic excessive alcohol drinking, the ability of the neurotrophic factor to control alcohol self-administration in rats with a history of excessive alcohol drinking was tested. […] The self-administration of three alcohol concentrations was measured. […]

[8] = test system: rats with history of moderate (10%) alcohol drinking; conditions: exogenous BDNF into the DLS, shown previously; cited from earlier work

- binge drinking of alcohol (p75NTR [2]; LM11A-31 150 mg/kg intraperitoneally 2 hours before session, IA20%-2BC 7 weeks, vs vehicle): significantly attenuated
- water intake (p75NTR [2]; LM11A-31 50-150 mg/kg intraperitoneally 2 hours before session, IA20%-2BC): without altering
- binge-like alcohol intake (p75NTR [3]; 2 h before 30 min alcohol binge-drinking session): significantly reduced
- concurrent water intake (p75NTR [3]; 2 h before 30 min alcohol session): without changing
- sucrose intake (p75NTR [5]): unaltered
- binge consumption of sucrose (p75NTR [6]): did not alter
- corresponding water intake (p75NTR [6]): unaltered
Molecule: CC[C@H](C)[C@H](N)C(=O)NCCN1CCOCC1 [LM11A-31, Tris[(2S,3S)-2-amino-3-methyl-N-(2-morpholinoethyl)pentanamide]tetra(monohydrogensulfate), monosulfate]
- binding between p75NTR and neurotrophins, including BDNF (p75NTR [1]): disrupting the binding
- p75NTR-mediated neuronal death [4]: blocks
- phosphorylation of Jun kinase (Jun kinase): decreases

B1: BDNF: Brain-derived neurotrophic factor; Human BDNF was purchased from Sigma-Aldrich (protein, UniProt P23560 19-247, looked up)
Neurotrophic factor BDNF …: APMKEANIRGQGGLAYPGVRTHGTLESVNGPKAGSRGLTSLADTFEHVIEELLDEDQKVRPNEENNKDADLYTSRVMLSSQVPLEPPLLFLLEEYKNYLDAANMSMRVRRHSDPARRGELSVCDSISEWVTAADKKTAVDMSGGTVTVLEKVPVSKGQLKQYFYETKCNPMGYTKEGCRGIDKRHWNSQCRTTQSYVRALTMDSKKRIGWRFIRIDTSCVCTLTIKRGR
- amount of alcohol consumed [7]: does not decrease; also recorded: did not decrease
- number of alcohol deliveries [7]: does not decrease; also recorded: did not decrease
- operant alcohol self-administration [8]: reduces
